Laboratory results from patent US20250186403A1 (ARIZONA BOARD OF REGENTS ON BEHALF OF THE UNIVERSITY OF …, priority 2022, published 2025).

Assays:
[1] = system: Prp8 intein splicing in Cne-WT; assay: Western blot, in vivo Prp8 intein splicing in Cne; type: cell-based, Cryptococcus neoformans; settings: Cne-WT incubated with CMN 18 h
Method: TCEP is added to a final concentration of 100 µM and incubated for 24 h. The substrate Nano-Glo luciferase (Promega) was added, and the resulting luminescence was read. IC50 was calculated using GraphPad prism. […] TCEP was added to a concentration of 1 mM and incubated for 24 h. From this reaction mixture, 10 μl was mixed with an equal volume of 2×SDA-PAGE loading dye and loaded onto 12% SDS-PAGE gel without boiling the sample. The gel was scanned with UV using Chemidoc (Bio Rad), and band intensities were quantified using Image Lab software. […] Cells were harvested and washed in PBS, lysed with bead lyser, and centrifuged at 10,000 rpm. An equal quantity of protein (50 μg) from each treatment was loaded onto 12% SDS-PAGE and blotted onto the NC membrane, blocked with 5% skimmed milk. The membrane was probed with anti-prp8 intein rabbit polyclonal sera, followed by goat anti-rabbit HRP antibody. Signals were developed using a chemiluminescent kit. The density of the spliced intein bands (˜20 kDa) were quantified using Image lab software. A band at ˜130 kDa is uncharacterized, as explained below. NC: nitrocellulose. Abs: absorbance
DMSO was used as a control. An equal volume of freshly grown Cne-WT culture (0.2 OD at 600 nm) was added to obtain the final absorbance of 0.1 OD. […] Intensities of bands were quantified by image lab software and compared with that of control.

[2] = 7-day toxicity study in mice; type: in vivo, BALB/c mice; set-up: key to Movement score (first line, r17) / Movement score (second line, r19): 0 = Normal; 1 = slight incoordination/decreased righting response; 2 = tiptoe walking or altered gait involving 1 limb; 3 = staggering or paralysis or tremors of 2 or more limbs; key to Coat condition score: 0 = normal/groomed; 1 = rough; 2 = ruffled/unkempt; key to Posture score: 0 = normal; 1 = slightly hunched; 2 = moderately hunched; 3 = severally hunched; settings: for Coat condition score / Death / Movement score (first line, r17) / Movement score (second line, r19) / Posture score / Seizure: individual mice
Method: FIGS. 4A, 4B, and 4C show in vitro and in vivo toxicity. […] A549 and RAW 264.7 cells were grown in 96 well plates till 70% confluent. RAW 264.7 cells were differentiated into macrophages using PMA. […] The cell viability was estimated by Cell Counting Kit-8 (GlpBio, CA, USA), and absorbance was read at 450 nm using microplate reader Synergy H1 (BioTek). CC50 was calculated by GraphPad prism. […] Abs: absorbance. […] Bodyweight and other parameters were monitored daily (Table 3).
The mice were observed twice daily for general health, movement, activity, and coat condition and scored. Food and water were ad libitum. On day 7, the mice were euthanized, and necropsy was done to see any changes in the organs as compared to the normal mice by visual observation.

Cne-WT and Cne-Mut = assay: Resazurin-based HTS growth assay, dose-response IC50; type: cell-based, Cryptococcus neoformans; settings: 24 h
Method: HTS assay: A resazurin-based growth assay was developed for primary screening, employing two strains of Cne, the Cne-WT with natural intein and Cne-Mut, the mutant strain without intein. The assay was first standardized in 96 well formats and later optimized for 384 well plates. The HTS was done at ICCB-Longwood screening facility, Harvard University, Boston, USA. For HTS, the fungal cells were grown in SD broth overnight and diluted in SD broth to an optical density (OD) 0.5 at 600 nm. The cell suspension is further diluted 1:10 in RPMI 1640 media with 0.165 M MOPS, 2% glucose (RPMI-MOPS) so that the final OD will be 0.05. […] The conversion of resazurin to resorufin by live cells were estimated by reading fluorescence at Ex 550 nm and Em 590 nm using a plate reader (EnVision, Perkin Elmer). Additionally, the absorbance was also read at 600 nm using the plate reader (EnVision, Perkin Elmer). […] The ratio of fluorescence reading in Cne-WT and Cne-Mut was used to advance positive compounds.
Concentration series (0.02 to 50 µM) of test compounds and equalizing volume of DMSO were dispensed using a liquid handler (D300 e, Hewlett Packard) to the 384 well plates. Following the addition of Cne cell suspension, the assay plates were incubated for 24 h, and fluorescence readings of resorufin were taken as explained for single concentration screening.

[3] = CMN 5 mg/kg BW oral daily 7 days
[4] = CMN 10 mg/kg BW oral daily 7 days
[5] = CMN 20 mg/kg BW oral daily 7 days
[6] = CMN 40 mg/kg BW oral daily 7 days

CNc1ccc2oc(C[C@H]3O[C@@]4(CC[C@H]3C)O[C@H]([C@H](C)C(=O)c3ccc[nH]3)[C@H](C)C[C@H]4C)nc2c1C(=O)O [CMN, calcimycin]
spliced intein (approximately 20 kDa) in western blot [1]: dose-dependent reduction in spliced intein | other morbidity ([2]; 40 mg/ml daily oral gavage, 7 days): no other morbidity was observed | loss of body weight ([2]; 40 mg/ml daily oral gavage, by day 7): 8% | activity of mice ([2]; 40 mg/ml, for 1-2 h post-dosing): slower | Coat condition score [2, 3]: 0 | Death [2, 3]: 0 | Movement score (first line, r17) [2, 3]: 0 | Movement score (second line, r19) [2, 3]: 0 | Posture score [2, 3]: 0 | Seizure [2, 3]: 0 | Coat condition score [2, 4]: 0 | Death [2, 4]: 0 | Movement score (first line, r17) [2, 4]: 0 | Movement score (second line, r19) [2, 4]: 0 | Posture score [2, 4]: 0 | Seizure [2, 4]: 0 | Coat condition score [2, 5]: 0 | Death [2, 5]: 0 | Movement score (first line, r17) [2, 5]: 0 | Movement score (second line, r19) [2, 5]: 0 | Posture score [2, 5]: 0 | Seizure [2, 5]: 0 | Coat condition score [2, 6]: 0 | Death [2, 6]: 0 | Movement score (first line, r17) [2, 6]: 1 | Movement score (second line, r19) [2, 6]: 0 | Posture score [2, 6]: 0 | Seizure [2, 6]: 0 | change in activity, appearance of fur, weight loss ([2]; daily oral gavage at 5, 10, 20 mg/ml, 7 days): no significant change | difference in IC50 (Cne-Mut vs Cne-WT) (Cne-WT and Cne-Mut): 2.5 fold
